Experimental data reported in US8906919B2, “Treatment of non-neuronal and non-myocardial cell, tissue and organ damage and associated pain with persistent sodium current blockers” (Ozteo Pty Ltd, priority 2009, dated 2014).
Read-outs that look alike come from different tables or passages of the source.

Tests used:
kidney tissue [1] = settings: rat; for kidney glutathione levels compared with non-treated reperfused group: 3 h ischaemia and 45 min reperfusion (FIG. 9)
Procedure: (§1) Additional studies were performed on kidney tissue in 48 isoflurane-anaesthetised, male Wistar albino rats (300-350 g). […] A further ten minutes was allowed for drug circulation prior to the induction of ischaemia. Tissue ischaemia was produced in all animals by occluding the renal artery to the left kidney. Immediately prior to occlusion, a 1,000 unit bolus of IV heparin was injected to prevent blood clotting and to permit reperfusion. Occlusion was maintained for 3 hours following which, in 6 animals in each group, the occlusion was released and reperfusion of the kidney was allowed. Samples of reperfused tissue were excised 45 minutes following reperfusion. Samples of non-reperfused ischaemic tissue were excised 3 hours post occlusion. Samples of ischaemic tissue and of reperfused tissue were taken from different animals. Samples of non-ischaemic, non-treated tissue were excised from the right kidney of the non-treated group.
Persistent sodium current blockade was evaluated for its effect on kidney tissue glutathione levels during ischaemia and reperfusion.

kidney tissue [2] = settings: rat, iv before ischaemia (riluzole 5 mg/kg, lidocaine 1 mg/kg, lamotrigine 20 mg/kg)
Procedure: as §1
In addition, persistent sodium current blockade was assessed for its affect on kidney tissue DNA fragmentation during ischaemia and reperfusion. […] All panels were illuminated by light with wavelength around 520 nm to show DNA fragmentation.

[3] = iv before ischaemia (riluzole 5 mg/kg, lidocaine 1 mg/kg, lamotrigine 20 mg/kg)
[4] = 3 hours of ischaemia and 45 minutes of reperfusion (FIG. 10)
[5] = 3 hours of ischaemia and no reperfusion (FIG. 10)

Nc1nnc(-c2cccc(Cl)c2Cl)c(N)n1 [lamotrigine]
kidney glutathione levels compared with non-treated reperfused group (kidney tissue [1]; [3]): substantially higher
damaged nuclei (DNA fragmentation) in renal tubules compared with non-treated tissue (kidney tissue [2]; [4]): the reduction in damaged nuclei is still significant
damaged nuclei (DNA fragmentation) in renal tubules compared with non-treated tissue (kidney tissue [2]; [5]): the reduction in damaged nuclei is still significant

CCN(CC)CC(=O)Nc1c(C)cccc1C [lidocaine]
kidney glutathione levels compared with non-treated, non-ischaemic and non-reperfused group (kidney tissue [1]; iv before ischaemia (riluzole 5 mg/kg, lidocaine 1 mg/kg), 3 h ischaemia and 45 min reperfusion (FIG. 9, vs 901)): not significantly different
kidney glutathione levels compared with non-treated reperfused group (kidney tissue [1]; [3]): significantly higher
kidney glutathione levels after ischaemia (kidney tissue [1]; iv before ischaemia (riluzole 5 mg/kg, lidocaine 1 mg/kg, lamotrigine 20 mg/kg), 3 h renal artery occlusion, no reperfusion (FIG. 8)): not significantly reduced
damaged nuclei (DNA fragmentation) in renal tubules compared with non-treated tissue (kidney tissue [2]; [4]): considerably fewer damaged nuclei
damaged nuclei (DNA fragmentation) in renal tubules compared with non-treated tissue (kidney tissue [2]; [5]): considerably fewer damaged nuclei
